Data published in ChEMBL document CHEMBL1201862, “PubChem BioAssay data set” (2004).
Calls of active or inactive are those of the source.

Assays:
[1] = target: Glucose-6-phosphate 1-dehydrogenase (Homo sapiens, UniProt P11413); test: human G6PD enzyme inhibitors, dose response, selectivity assay for P. falciparum G6PD inhibitor project, biochemical, fluorescence (AID 504792); format: functional
[2] = target: Cytochrome P450 2D6 (Homo sapiens, UniProt P10635);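 further: CYP2D6 member of a cytochrome P450 panel assay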
[3] = target: T1, Cytochrome P450 2C9 (Homo sapiens, UniProt P11712)
[4] = target: Major prion protein (Homo sapiens, UniProt P04156); format: functional, cell-based
[5] = cells
[6] = test system: Vero; test: Vero cell cytotoxicity, cytotoxicity control for flavivirus capping enzyme inhibitors (AID 588742); format: functional; conditions: Chlorocebus sabaeus
[7] = target: T2, Sentrin-specific protease 8 (Homo sapiens, UniProt Q96LD8); format: functional
T2 sequence (Q96LD8 whole entry): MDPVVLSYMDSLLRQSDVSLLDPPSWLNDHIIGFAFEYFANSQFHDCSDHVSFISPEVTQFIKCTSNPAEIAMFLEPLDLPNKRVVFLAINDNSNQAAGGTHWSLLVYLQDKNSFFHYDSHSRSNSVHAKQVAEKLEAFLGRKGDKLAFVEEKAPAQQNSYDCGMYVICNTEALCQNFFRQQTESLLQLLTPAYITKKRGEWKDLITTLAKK

[8] = target: T2, Sentrin-specific protease 8; format: functional; remark: listed apart in the source
[9] = inhibitors of intracellular T. cruzi replication, confirmation, NIH3T3 host cells, beta-gal luminescence (AID 2044); format: functional, cell-based;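 further: intracellular parasites grown in NIH/3T3 mouse fibroblasts as host cells; luminescent beta-galactosidase reporter signal from transgenic T. cruzi replicating inside host cells; inhibitors lower the luminescence signal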
[10] = cytotoxicity toward NIH3T3 fibroblasts, dose response, counter-screen, cell-based, ATP luminescence, mouse fibroblasts (AID 2010); format: functional;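 further: cells exposed to compound for about 90 hours before reading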
[11] = target: Voltage-dependent T-type calcium channel subunit alpha-1H (Homo sapiens, UniProt O95180); format: functional;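 further: channel activity triggered by adding a high calcium stimulation buffer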
[12] = target: Beta-galactosidase (Escherichia coli, UniProt Q8VNN2); test: Dose response counterscreen for EBI2 assay utilizing the enzyme, b-galactosidase.; format: functional
[13] = cells; format: functional, cell-based
[14] = cells; format: functional, cell-based; remark: listed apart in the source
[15] = test system: Escherichia coli; test: microbe, parasite or virus in culture
[16] = target: Peroxisome proliferator-activated receptor gamma/Nuclear receptor coactivator 2 (Homo sapiens, UniProt P37231); format: functional;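 further: agonist potency for raising coactivator recruitment to the receptor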
[17] = target: Peroxisome proliferator-activated receptor gamma/Nuclear receptor coactivator 1 (Homo sapiens, UniProt P37231); format: functional;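 further: agonist potency as compounds enhance coactivator SRC-1 recruitment to PPARgamma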
[18] = target: Peroxisome proliferator-activated receptor gamma/Nuclear receptor coactivator 3 (Homo sapiens, UniProt P37231); format: functional;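 further: agonist potency for raising coactivator recruitment to the receptor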
[19] = test system: HEK293; test: inhibitors of LMP1-driven NF-kB reporter, dose response, cell-based, HEK293, luciferase, cherry-pick (AID 588343); format: functional; conditions: Homo sapiens
[20] = target: T1, Cytochrome P450 2C9; remark: listed apart in the source
[21] = test system: Streptococcus sp. 'group A'; test: growth inhibition of control SK(-) GAS strain, dose response, counter-screen for streptokinase expression inhibitor project, luminescence, kanamycin, BacTiterGlo, confirmation (AID 1900); format: functional, organism-based
[22] = target: T3, Streptokinase A (Streptococcus pyogenes serotype M1, UniProt P10520); test: S. pyogenes streptokinase expression inhibitors, potency, dose response, plasminogen activation absorbance, OD405 (AID 1914); format: functional, Streptococcus pyogenes M1 GAS;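 further: secreted streptokinase activity via plasminogen activation per viability signal from cell pellet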
T3 sequence (P10520 whole entry): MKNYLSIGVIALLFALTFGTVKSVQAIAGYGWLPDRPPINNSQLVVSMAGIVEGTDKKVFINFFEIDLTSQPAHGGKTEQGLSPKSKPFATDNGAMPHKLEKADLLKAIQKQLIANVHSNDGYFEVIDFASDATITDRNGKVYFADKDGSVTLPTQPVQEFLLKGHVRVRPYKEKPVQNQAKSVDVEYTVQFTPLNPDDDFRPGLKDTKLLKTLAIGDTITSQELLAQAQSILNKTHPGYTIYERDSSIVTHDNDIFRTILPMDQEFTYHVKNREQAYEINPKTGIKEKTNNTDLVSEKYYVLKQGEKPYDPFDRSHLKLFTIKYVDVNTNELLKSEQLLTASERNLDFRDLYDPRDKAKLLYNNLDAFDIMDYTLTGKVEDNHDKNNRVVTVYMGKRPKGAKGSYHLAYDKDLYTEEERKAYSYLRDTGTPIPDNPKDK

[23] = test system: Streptococcus; test: Group A Streptococcus viability loss, dose response, counter-screen for streptokinase expression inhibitor project, luminescence, BacTiterGlo (AID 1915); format: functional, organism-based;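 further: potency for reduction of bacterial viability or growth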
[24] = test system: H9c2; test: cells; format: functional, cell-based; conditions: Rattus norvegicus, H9c2, Myocardium;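 further: confirmatory concentration-response retest of ultra-high-throughput screening hits for modulation of myocardial damage; cell death induced by hydrogen peroxide oxidative stress; compound pretreatment for 60 min then peroxide exposure for 2 h; potency is for protecting the cells against peroxide damage rather than for killing them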
[25] = intracellular Trypanosoma cruzi inhibitors in host cells – cell-based, plate reader, cherry-pick samples, set 3, dose response (AID 651818); format: functional;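 further: compounds incubated with infected cells for about four days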
[26] = target: T4, Histone-lysine N-methyltransferase NSD2 (Homo sapiens, UniProt O96028); format: biochemical
T4 sequence (O96028 whole entry): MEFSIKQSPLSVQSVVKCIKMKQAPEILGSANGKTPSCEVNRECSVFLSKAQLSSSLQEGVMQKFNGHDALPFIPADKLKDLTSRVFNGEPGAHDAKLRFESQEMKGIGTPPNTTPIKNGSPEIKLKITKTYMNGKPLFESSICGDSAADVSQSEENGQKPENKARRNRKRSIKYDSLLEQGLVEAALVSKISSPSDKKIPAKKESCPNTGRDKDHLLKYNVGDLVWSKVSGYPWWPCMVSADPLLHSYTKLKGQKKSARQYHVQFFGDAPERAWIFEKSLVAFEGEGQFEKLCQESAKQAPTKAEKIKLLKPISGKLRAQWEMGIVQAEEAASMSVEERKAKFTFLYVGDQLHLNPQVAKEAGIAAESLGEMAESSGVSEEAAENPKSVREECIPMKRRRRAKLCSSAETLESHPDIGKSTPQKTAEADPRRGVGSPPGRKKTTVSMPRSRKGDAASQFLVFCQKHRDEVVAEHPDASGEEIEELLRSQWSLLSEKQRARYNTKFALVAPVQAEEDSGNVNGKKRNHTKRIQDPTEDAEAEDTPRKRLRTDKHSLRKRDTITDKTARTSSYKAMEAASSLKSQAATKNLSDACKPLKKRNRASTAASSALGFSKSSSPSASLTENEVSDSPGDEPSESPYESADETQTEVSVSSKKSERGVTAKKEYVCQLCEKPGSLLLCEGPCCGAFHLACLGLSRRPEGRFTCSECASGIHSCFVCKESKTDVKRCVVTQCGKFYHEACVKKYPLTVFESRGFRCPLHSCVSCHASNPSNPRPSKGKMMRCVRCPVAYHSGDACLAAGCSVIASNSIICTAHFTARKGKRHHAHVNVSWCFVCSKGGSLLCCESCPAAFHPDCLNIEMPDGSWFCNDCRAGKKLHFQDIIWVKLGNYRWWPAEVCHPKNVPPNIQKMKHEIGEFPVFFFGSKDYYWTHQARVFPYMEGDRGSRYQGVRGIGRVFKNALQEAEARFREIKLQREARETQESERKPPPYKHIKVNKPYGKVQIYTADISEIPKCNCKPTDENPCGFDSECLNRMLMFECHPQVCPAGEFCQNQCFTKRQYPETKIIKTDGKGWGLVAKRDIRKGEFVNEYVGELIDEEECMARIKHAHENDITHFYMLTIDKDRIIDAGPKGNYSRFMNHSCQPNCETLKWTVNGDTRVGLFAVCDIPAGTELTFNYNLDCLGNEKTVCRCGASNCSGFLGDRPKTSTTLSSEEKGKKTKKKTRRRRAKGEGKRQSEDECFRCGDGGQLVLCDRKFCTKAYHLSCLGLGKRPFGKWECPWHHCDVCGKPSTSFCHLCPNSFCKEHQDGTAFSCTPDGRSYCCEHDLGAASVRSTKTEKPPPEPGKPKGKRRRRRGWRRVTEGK

Cc1ccc(NS(=O)(=O)c2ccccc2Cl)c2c1CC(C)(C)O2
IC50 [1]: > 80 µM (inactive) | AC50 [2]: 15.8 µM (inconclusive) | AC50 [3]: inconclusive

CCN(CC)C(=O)CSc1nc(O)c(Cc2ccccc2)c(=O)n1-c1ccccc1
IC50 [4]: 14.6 µM (inactive) | IC50 [5]: > 138 µM (inactive)

COc1ccc(C(=O)c2c3ccc([N+](=O)[O-])cc3[n+]([O-])n2CCCN)cc1
CC50 [6]: 30.6 µM (active) | IC50 [7]: 14.4 µM (active) | IC50 [8]: 9.21 µM (active)

CCn1cc(/C=C/C(=O)Nc2ccn(Cc3c(F)c(F)cc(F)c3F)n2)cn1
IC50 [7]: 28.9 µM (active) | IC50 [8]: 9.64 µM (active)

CC(=O)Nc1ccc(-c2ccnc(-c3ccc(NC(C)=O)cc3)n2)cc1
IC50 [4]: 26.7 µM (inactive) | IC50 [5]: > 138 µM (inactive)

O=C(O)CSc1ncnc2sc3c(c12)CCCC3
IC50 [4]: 8.49 µM (active) | IC50 [5]: > 138 µM (inactive)

Cc1ccc(OCC(=O)N2CCN(c3nnc(-c4ccccc4)c4ccccc34)CC2)cc1
EC50 [9]: 1.92 µM (active) | EC50 [10]: > 60 µM (not active) | EC50 [11]: 3.8 µM (active) | IC50 [12]: > 80 µM (inactive)

CCOC(=O)c1ccc(NC(=O)CN2CCc3ccccc3C2)cc1
IC50 [7]: > 100 µM (inactive) | IC50 [8]: 21.6 µM (active)

Oc1nc(Nc2ccccc2)nc(N2CCCCC2)n1
IC50 [13]: > 29.9 µM (inactive) | EC50 [14]: > 29.9 µM (inactive)

COc1ccccc1NS(=O)(=O)c1cccc(NC2=NC(=N)c3ccccc32)c1
AC50 [15]: 99.5 µM (active)

COC(=O)C1(S(=O)(=O)C2(C(=O)OC)CCCC2)CCCC1
AC50 [15]: > 150 µM (inactive)

CC(C)Sc1nc2c(c(=O)[nH]c(=O)n2C)n1CCc1ccccc1
AC50 [15]: 33.2 µM (active)

COc1ccc(NC(=S)N2CCc3ccccc3C2)cc1OC
IC50 [13]: > 29.9 µM (inactive) | EC50 [14]: > 29.9 µM (inactive)

CC1C(Br)C(=O)NC(=O)N1Cc1ccccc1 (stereo not given)
EC50 [16]: > 79.4 µM (not active) | EC50 [17]: > 79.4 µM (not active) | EC50 [18]: > 79.4 µM (not active)

Cc1cc(OCc2ccccc2)ccc1C(=O)C1=C(O)C(=O)N(Cc2cccnc2)C1c1ccncc1 (stereo not given)
IC50 [4]: 12.5 µM (inactive) | IC50 [5]: > 138 µM (inactive)

Clc1ccc2nc(-c3ccc4c(c3)OCO4)cn2c1
IC50 [1]: > 80 µM (inactive) | AC50 [19]: 4.13 µM (active)

CN1CCN(C(=O)/C=C\c2ccc(Cl)cc2)CC1
IC50 [12]: > 80 µM (inactive)

C[N+]1(C)CCC(=C2c3ccccc3CC(=O)c3sccc32)CC1
IC50 [7]: 30.4 µM (active) | IC50 [8]: 12.6 µM (active)

CC(=O)N(Cc1ccc(F)cc1)c1cccc(C)c1C
AC50 [15]: 23.7 µM (active)

O=C(Nc1ccc(Oc2ccccc2)nc1)C1CCCCN1Cc1cccc(O)c1 (stereo not given)
IC50 [12]: > 80 µM (inactive)

Cc1ccccc1NC1=NC(=S)N(c2ccccc2)C12CCOC(C)(C)C2 (stereo not given)
AC50 [20]: 11.2 µM (inconclusive) | AC50 [15]: 22.6 µM (active)

COc1ccccc1N1CCN(C(=O)/C=C/c2ccc(C)cc2)CC1
EC50 [21]: > 150 µM (not active) | EC50 [22]: 107 µM (active) | EC50 [23]: > 150 µM (not active) | IC50 [12]: > 80 µM (inactive)

CCc1cc2cccc(C)c2nc1SCC(=O)N1CCN(C(=O)c2ccco2)CC1
IC50 [24]: > 79 µM (inactive) | IC50 [4]: 10.7 µM (inactive) | IC50 [5]: 54.9 µM (inactive)

O=C1CCN(Cc2ccccc2)C=C1c1ccc2ccccc2c1
IC50 [12]: > 80 µM (inactive)

O=C(CSc1cccc[n+]1[O-])Nc1ccccc1C(F)(F)F
AC50 [15]: 48.6 µM (active)

Cc1ccc(C(=O)NNC(=O)CSc2nnc(-c3ccccc3)n2Cc2ccccc2)cc1
IC50 [12]: > 80 µM (inactive)

O=C(N/N=C/c1cc(Br)cc(Br)c1O)c1ccccc1O
AC50 [25]: 1.85 µM (active)

C[C@@H]1CCCCO[C@H](CN(C)S(=O)(=O)c2ccc(Cl)cc2)[C@@H](C)CN([C@H](C)CO)C(=O)c2cc(NC(=O)Nc3ccc(C(F)(F)F)cc3)ccc2O1
AC50 [25]: 3 µM (active)

Cc1ccc(S(=O)(=O)Nc2ccc3c(c2)CC(=O)N([C@@H](C)CO)C[C@@H](C)[C@@H](CN(C)S(=O)(=O)c2ccc(C)cc2)O3)cc1
AC50 [25]: 6.15 µM (active)

C[C@H](CO)N1C[C@H](C)[C@@H](CN(C)Cc2ccc(C(=O)Nc3ccccc3N)cc2)Oc2c(NC(=O)Nc3ccccc3)cccc2C1=O
AC50 [25]: 1.61 µM (active)

CCC(CC)C(=O)N(C)c1c(C)nc2c(OCC=C(C)C)cccn12
IC50 [7]: > 100 µM (inactive) | IC50 [8]: 33.4 µM (active)

C[C@H]1CN([C@@H](C)CO)C(=O)Cc2cc(NC(=O)CCC(F)(F)F)ccc2O[C@H]1CN(C)Cc1ccc(C(=O)Nc2ccccc2N)cc1
AC50 [25]: 5.91 µM (active)

C[C@@H]1CN([C@@H](C)CO)C(=O)c2cccc(NC(=O)Nc3ccc(F)cc3)c2O[C@H]1CN(C)Cc1ccc(C(=O)Nc2ccccc2N)cc1
AC50 [25]: 0.46 µM (active)

C[C@H]1CN([C@@H](C)CO)C(=O)c2cccc(NC(=O)Nc3ccc(F)cc3)c2O[C@H]1CN(C)Cc1ccc(C(=O)Nc2ccccc2N)cc1
AC50 [25]: 2.74 µM (active)

C[C@H]1COc2c3ccc(I)cc3nn21
IC50 [4]: 3.61 µM (active) | IC50 [5]: > 138 µM (inactive)

COc1cc(OC)c([N+](=O)[O-])cc1/C=N/NC(=O)c1ccncc1
IC50 [7]: 12.3 µM (active) | IC50 [8]: 9.81 µM (active) | AC50 [26]: > 20 µM (inactive)
